{"source": "paper PMC5742115", "about": "“Pharmacophore Modeling and in Silico/in Vitro Screening for Human Cytochrome P450 11B1 and Cytochrome P450 11B2 Inhibitors” (Frontiers in Chemistry, 2017)", "origin": "cited, not measured here", "key": {"[1]": {"system": "CYP11B2", "settings": "reported activity, supplementary Table 1, read-out: CYP11B2 IC50, cited from earlier work"}, "[2]": {"system": "CYP11B1", "settings": "reported activity, supplementary Table 1, read-out: CYP11B1 IC50, cited from earlier work"}, "[3]": {"settings": "ref Pinto-Bazurco Mendieta et al., 2013"}}, "note": "Read-outs that look alike come from different tables or passages of the source.", "data": [{"smiles": "O=C1CCc2cc(-c3cccnc3)cc3c2N1CC3", "note": "[CHEMBL1765205]", "values": [{"measurement": "IC50", "setting": "[1]; ref Lucas et al., 2011", "value": 1.1, "unit": "nM"}, {"measurement": "IC50", "setting": "[2]; ref Lucas et al., 2011", "value": 715, "unit": "nM"}]}, {"smiles": "Fc1ccc(Cn2cncc2-c2ccccc2)cc1", "note": "[CHEMBL610501]", "values": [{"measurement": "IC50", "setting": "[1]; ref Roumen et al., 2010", "value": 11, "unit": "nM"}, {"measurement": "IC50", "setting": "[2]; ref Roumen et al., 2010", "value": 16, "unit": "nM"}]}, {"smiles": "Oc1ccc2ccc(-c3cccnc3)c(Cl)c2c1", "note": "[CHEMBL2420674]", "values": [{"measurement": "IC50", "setting": "[1]; [3]", "value": 26, "unit": "nM"}, {"measurement": "IC50", "setting": "[2]; [3]", "value": 235, "unit": "nM"}]}, {"smiles": "O=c1c2ccccc2oc2c(OCC3CC3)ccc(Cn3ccnc3)c12", "note": "[CHEMBL2333334]", "values": [{"measurement": "IC50", "setting": "[1]; ref Gobbi et al., 2013", "value": 24.1, "unit": "nM"}, {"measurement": "IC50", "setting": "[2]; ref Gobbi et al., 2013", "value": 5.5, "unit": "nM"}]}, {"smiles": "CC(C)CCOc1ccc(Cn2ccnc2)c2c(=O)c3ccccc3oc12", "note": "[CHEMBL2333332]", "values": [{"measurement": "IC50", "setting": "[1]; ref Gobbi et al., 2013", "value": 25.2, "unit": "nM"}, {"measurement": "IC50", "setting": "[2]; ref Gobbi et al., 2013", "value": 24.4, "unit": "nM"}]}, {"smiles": "c1ccc2c(-c3ccc(Cn4ccnc4)cn3)cncc2c1", "note": "[CHEMBL2011260]", "values": [{"measurement": "IC50", "setting": "[1]; ref Hille et al., 2011a", "value": 914, "unit": "nM"}, {"measurement": "IC50", "setting": "[2]; ref Hille et al., 2011a", "value": 95, "unit": "nM"}]}, {"smiles": "c1ccc(-c2ccc(C(c3ccco3)n3ccnc3)cn2)cc1", "note": "(stereo not shown) [CHEMBL2417623]", "values": [{"measurement": "IC50", "setting": "[1]; ref Emmerich et al., 2013", "value": 74, "unit": "nM"}, {"measurement": "IC50", "setting": "[2]; ref Emmerich et al., 2013", "value": 69, "unit": "nM"}]}, {"smiles": "COc1ccc2c(c1)C=C(c1cccnc1)CC2", "note": "[CHEMBL206273]", "values": [{"measurement": "IC50", "setting": "[1]; ref Voets et al., 2006", "value": 5, "unit": "nM"}]}, {"smiles": "O=C1CCc2cc(-c3cccnc3)cc(Br)c2N1", "note": "[CHEMBL2165322]", "values": [{"measurement": "IC50", "setting": "[1]; ref Hu et al., 2012", "value": 12, "unit": "nM"}, {"measurement": "IC50", "setting": "[2]; ref Hu et al., 2012", "value": 1420, "unit": "nM"}]}, {"smiles": "CCOc1ccc2cc(-c3cccnc3)ccc2c1", "note": "[CHEMBL193343]", "values": [{"measurement": "IC50", "setting": "[1]; ref Voets et al., 2005", "value": 12, "unit": "nM"}, {"measurement": "IC50", "setting": "[2]; ref Voets et al., 2005", "value": 5420, "unit": "nM"}]}, {"smiles": "COc1ccc2cc(-c3cccnc3)c(C)cc2c1", "note": "[CHEMBL499871]", "values": [{"measurement": "IC50", "setting": "[1]; ref Heim et al., 2008", "value": 7, "unit": "nM"}, {"measurement": "IC50", "setting": "[2]; ref Heim et al., 2008", "value": 1050, "unit": "nM"}]}, {"smiles": "COC1CCc2cc(-c3cccnc3)ccc2C1", "note": "(stereo not shown) [CHEMBL460178]", "values": [{"measurement": "IC50", "setting": "[1]; ref Lucas et al., 2008b", "value": 3.3, "unit": "nM"}, {"measurement": "IC50", "setting": "[2]; ref Lucas et al., 2008b", "value": 1140, "unit": "nM"}]}, {"smiles": "Fc1ccc2c(c1)CC/C2=C/c1cccnc1", "note": "[CHEMBL383806]", "values": [{"measurement": "IC50", "setting": "[1]; ref Ulmschneider et al., 2005a", "value": 11, "unit": "nM"}, {"measurement": "IC50", "setting": "[2]; ref Ulmschneider et al., 2005a", "value": 125, "unit": "nM"}]}, {"smiles": "Cc1cncn1Cc1ccc(C#N)cc1", "note": "[CHEMBL162496]", "values": [{"measurement": "IC50", "setting": "[1]; ref Roumen et al., 2010", "value": 12, "unit": "nM"}, {"measurement": "IC50", "setting": "[2]; ref Roumen et al., 2010", "value": 141, "unit": "nM"}]}, {"smiles": "C(=C(c1ccccc1)c1ccccc1)c1ccncc1", "note": "[CHEMBL381194]", "values": [{"measurement": "IC50", "setting": "[1]; ref Ulmschneider et al., 2005a", "value": 22, "unit": "nM"}]}, {"smiles": "Oc1ccc2ccc(-c3cccnc3)c(F)c2c1", "note": "[CHEMBL2420676]", "values": [{"measurement": "IC50", "setting": "[1]; [3]", "value": 30, "unit": "nM"}, {"measurement": "IC50", "setting": "[2]; [3]", "value": 1160, "unit": "nM"}]}, {"smiles": "Brc1ccc2c(c1)CC/C2=C/c1c[nH]cn1", "note": "[CHEMBL174579]", "values": [{"measurement": "IC50", "setting": "[1]; ref Ulmschneider et al., 2005b", "value": 10.3, "unit": "nM"}]}, {"smiles": "c1cncc(-c2ccc3cccc4c3c2CC4)c1", "note": "[CHEMBL372747]", "values": [{"measurement": "IC50", "setting": "[1]; ref Ulmschneider et al., 2006", "value": 10, "unit": "nM"}]}, {"smiles": "c1ccc(-c2ccccc2Cn2ccnc2)cc1", "note": "[CHEMBL1651496]", "values": [{"measurement": "IC50", "setting": "[1]; ref Hille et al., 2011b", "value": 39, "unit": "nM"}, {"measurement": "IC50", "setting": "[2]; ref Hille et al., 2011b", "value": 15, "unit": "nM"}]}, {"smiles": "COc1cncc(-c2ccc3c(c2)CCC(=O)N3)c1", "note": "[CHEMBL457646]", "values": [{"measurement": "IC50", "setting": "[1]; ref Lucas et al., 2008b", "value": 2.7, "unit": "nM"}, {"measurement": "IC50", "setting": "[2]; ref Lucas et al., 2008b", "value": 339, "unit": "nM"}]}, {"smiles": "c1ccc(-c2ccc(Cc3ccncc3)cn2)cc1", "note": "[CHEMBL2417634]", "values": [{"measurement": "IC50", "setting": "[1]; ref Emmerich et al., 2013", "value": 621, "unit": "nM"}, {"measurement": "IC50", "setting": "[2]; ref Emmerich et al., 2013", "value": 98, "unit": "nM"}]}, {"smiles": "COc1ccc2cc(-c3cncc(CO)c3)ccc2c1", "note": "[CHEMBL448064]", "values": [{"measurement": "IC50", "setting": "[1]; ref Heim et al., 2008", "value": 9.1, "unit": "nM"}, {"measurement": "IC50", "setting": "[2]; ref Heim et al., 2008", "value": 614, "unit": "nM"}]}, {"smiles": "O=C1CCc2cc(-c3cccnc3)c(OCc3ccccc3)cc2N1", "note": "[CHEMBL2165320]", "values": [{"measurement": "IC50", "setting": "[1]; ref Hu et al., 2012", "value": 22, "unit": "nM"}, {"measurement": "IC50", "setting": "[2]; ref Hu et al., 2012", "value": 44, "unit": "nM"}]}, {"smiles": "COc1cncc(-c2ccc3ccc(OC)cc3c2Cl)c1", "note": "[CHEMBL2420681]", "values": [{"measurement": "IC50", "setting": "[1]; [3]", "value": 24, "unit": "nM"}, {"measurement": "IC50", "setting": "[2]; [3]", "value": 447, "unit": "nM"}]}, {"smiles": "C(=C1\\CCCc2ccccc21)/c1c[nH]cn1", "note": "[CHEMBL367719]", "values": [{"measurement": "IC50", "setting": "[1]; ref Ulmschneider et al., 2005b", "value": 9.6, "unit": "nM"}, {"measurement": "IC50", "setting": "[2]; ref Ulmschneider et al., 2005b", "value": 3.3, "unit": "nM"}]}, {"smiles": "c1ccc2c(c1)ncn2CC12CC3CC(CC(C3)C1)C2", "note": "[CHEMBL1651506]", "values": [{"measurement": "IC50", "setting": "[2]; ref Hille et al., 2011b", "value": 75, "unit": "nM"}]}, {"smiles": "N#Cc1ccc(Cn2cncc2C=O)cc1", "note": "[CHEMBL611680]", "values": [{"measurement": "IC50", "setting": "[1]; ref Roumen et al., 2010", "value": 62, "unit": "nM"}, {"measurement": "IC50", "setting": "[2]; ref Roumen et al., 2010", "value": 478, "unit": "nM"}]}, {"smiles": "O=C1CCc2cc(C(c3ccncc3)c3ccc(F)cc3)cc3c2N1CC3", "note": "(stereo not shown) [CHEMBL2312959]", "values": [{"measurement": "IC50", "setting": "[1]; ref Yin et al., 2013", "value": 56, "unit": "nM"}, {"measurement": "IC50", "setting": "[2]; ref Yin et al., 2013", "value": 88, "unit": "nM"}]}, {"smiles": "O=C1CCc2cc(-c3cccnc3)cc3c2N1CCC3", "note": "[CHEMBL1765206]", "values": [{"measurement": "IC50", "setting": "[1]; ref Lucas et al., 2011", "value": 2.4, "unit": "nM"}, {"measurement": "IC50", "setting": "[2]; ref Lucas et al., 2011", "value": 2300, "unit": "nM"}]}, {"smiles": "COc1ccc2cc(-c3cncc4ccccc34)c(C)cc2c1", "note": "[CHEMBL525785]", "values": [{"measurement": "IC50", "setting": "[1]; ref Heim et al., 2008", "value": 3.1, "unit": "nM"}, {"measurement": "IC50", "setting": "[2]; ref Heim et al., 2008", "value": 843, "unit": "nM"}]}, {"smiles": "O=c1c2ccccc2oc2cccc(Cn3ccnc3)c12", "note": "[CHEMBL1083652]", "values": [{"measurement": "IC50", "setting": "[1]; ref Gobbi et al., 2013", "value": 114, "unit": "nM"}, {"measurement": "IC50", "setting": "[2]; ref Gobbi et al., 2013", "value": 99.1, "unit": "nM"}]}, {"smiles": "COc1ccc2ccc(-c3cccnc3)c(Cl)c2c1F", "note": "[CHEMBL2420677]", "values": [{"measurement": "IC50", "setting": "[1]; [3]", "value": 28, "unit": "nM"}, {"measurement": "IC50", "setting": "[2]; [3]", "value": 2940, "unit": "nM"}]}, {"smiles": "O=C1CCc2cc(-c3cncc(C(F)(F)F)c3)cc3c2N1CC3", "note": "[CHEMBL1765213]", "values": [{"measurement": "IC50", "setting": "[1]; ref Lucas et al., 2011", "value": 5.9, "unit": "nM"}, {"measurement": "IC50", "setting": "[2]; ref Lucas et al., 2011", "value": 141, "unit": "nM"}]}]}
